Reference: patent US9682983B2, “BMP inhibitors and methods of use thereof” (THE BRIGHAM AND WOMEN'S HOSPITAL, INC., priority 2013, dated 2017)

Biological target: human ALK2 (Homo sapiens (Human), UniProt Q04771)
Assay: LANCE Ultra ULight enzymatic assay (FOP Enzymatic Assay), ALK2
Format: biochemical
Conditions: not given

Chain of human ALK2 (Q04771 21-509): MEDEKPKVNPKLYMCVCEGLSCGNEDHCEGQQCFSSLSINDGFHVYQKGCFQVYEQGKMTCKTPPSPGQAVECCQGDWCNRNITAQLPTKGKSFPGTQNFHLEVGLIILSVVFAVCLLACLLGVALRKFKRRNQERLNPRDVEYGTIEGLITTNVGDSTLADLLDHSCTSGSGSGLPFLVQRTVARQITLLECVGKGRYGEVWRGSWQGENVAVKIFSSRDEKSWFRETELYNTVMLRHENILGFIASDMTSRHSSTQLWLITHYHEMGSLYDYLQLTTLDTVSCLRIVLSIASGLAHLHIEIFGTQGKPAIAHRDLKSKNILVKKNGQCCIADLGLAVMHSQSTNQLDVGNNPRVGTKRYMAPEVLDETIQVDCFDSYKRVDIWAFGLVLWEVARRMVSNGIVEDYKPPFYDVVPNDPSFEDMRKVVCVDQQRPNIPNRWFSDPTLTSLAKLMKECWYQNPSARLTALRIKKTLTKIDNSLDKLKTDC

Row | SMILES | IC50 [nM]
1 | [2H]c1cc(-c2cnn3cc(-c4ccc(N5CCNCC5)nc4)cnc23)c2ccccc2n1 [compound 17, 4-(6-(6-(piperazin-1-yl)pyridin-3-yl)pyrazolo[1,5-a]pyrimidin-3-yl)quinoline] | 40
2 | [2H]c1ccc2c(-c3cnn4cc(-c5ccc(N6[C@H](C)CNC[C@@H]6C)cc5)cnc34)cccc2n1 [Compound 53, 5-(6-(4-((2R,6S)-2,6-dimethylpiperazin-1-yl)phenyl)pyrazolo[1,5-a]pyrimidin-3-yl)2-^2H-quinoline] | 8

Same assay, conditions: 10 μM ATP

Row | IC50 [nM] | SMILES
3 | 34 | [2H]c1ccc2c(-c3cnn4cc(-c5ccc(O[C@H]6CCNC6)cn5)cnc34)cccc2n1 [Compound 65, (S)-5-(6-(5-(pyrrolidin-3-yloxy)pyridin-2-yl)pyrazolo[1,5-a]pyrimidin-3-yl)-2-^2H-quinoline]
4 | 28 | [2H]c1ccc2c(-c3cnn4cc(-c5ccc(OC(C)(C)CN6CCCCC6)cn5)cnc34)cccc2n1 [Compound 57, 5-(6-(5-((2-methyl-1-(piperidin-1-yl)propan-2-yl)oxy)pyridin-2-yl)pyrazolo[1,5-a]pyrimidin-3-yl)-2-^2H-quinoline]
5 | 94 | [2H]c1ccc2c(-c3cnn4cc(-c5ccc(OCCN6CCCCC6)cn5)cnc34)cccc2n1 [Compound 47, 5-(6-(5-(2-(piperidin-1-yl)ethoxy)pyridin-2-yl)pyrazolo[1,5-a]pyrimidin-3-yl)-2-^2H-quinoline]
6 | 157 | [2H]c1ccc2c(-c3cnn4cc(-c5ccc(OCCN6CCNCC6)cn5)cnc34)cccc2n1 [compound 49, 5-(6-(5-(2-(piperazin-1-yl)ethoxy)pyridin-2-yl)pyrazolo[1,5-a]pyrimidin-3-yl)-2-^2H-quinoline]
7 | 41 | [2H]c1ccc2c(-c3cnn4cc(-c5ccc(OC6CCNCC6)cn5)cnc34)cccc2n1 [Compound 61, 5-(6-(5-(piperidin-4-yloxy)pyridin-2-yl)pyrazolo[1,5-a]pyrimidin-3-yl)-2-^2H-quinoline]
8 | 43 | [2H]c1ccc2c(-c3cnn4cc(-c5ccc(OC6CCN(C)CC6)cn5)cnc34)cccc2n1 [Compound 59, 5-(6-(5-((1-methylpiperidin-4-yl)oxy)pyridin-2-yl)pyrazolo[1,5-a]pyrimidin-3-yl)-2-^2H-quinoline]

Same assay, conditions: read-out: ALK2 IC50 (nM) at 10 μM ATP; 10 μM ATP

Row | SMILES | IC50 [nM]
9 | Cc1ccc2c(-c3cnn4cc(-c5ccc(OC6CCNCC6)cn5)cnc34)cccc2n1 [Compound 62, 2-methyl-5-(6-(5-(piperidin-4-yloxy)pyridin-2-yl)pyrazolo[1,5-a]pyrimidin-3-yl)quinoline] | 180
10 | NCc1ccc2c(-c3cnn4cc(-c5ccc(N6CCNCC6)cc5)cnc34)ccnc2c1 [Compound 20, (4-(6-(4-(piperazin-1-yl)phenyl)pyrazolo[1,5-a]pyrimidin-3-yl)quinolin-7-yl)methanamine] | 706
11 | c1ccc2c(-c3cnn4cc(-c5cnc(N6CCNCC6)nc5)cnc34)ccnc2c1 [Compound 5, 4-(6-(2-(piperazin-1-yl)pyrimidin-5-yl)pyrazolo[1,5-a]pyrimidin-3-yl)quinoline] | 103
12 | Cc1ccc2c(-c3cnn4cc(-c5ccc(OCCN6CCNCC6)cn5)cnc34)cccc2n1 [Compound 50, 2-methyl-5-(6-(5-(2-(piperazin-1-yl)ethoxy)pyridin-2-yl)pyrazolo[1,5-a]pyrimidin-3-yl)quinoline] | 643
13 | Oc1cc(-c2cnn3cc(-c4ccc(N5CCNCC5)cc4)cnc23)c2ccccc2n1 [Compound 9, 4-(6-(4-(piperazin-1-yl)phenyl)pyrazolo[1,5-a]pyrimidin-3-yl)quinolin-2-ol] | 792
14 | c1cc(-c2cnn3cc(-c4ccc(N5CCNCC5)nc4)cnc23)c2cccnc2c1 [Compound 30, 5-(6-(6-(piperazin-1-yl)pyridin-3-yl)pyrazolo[1,5-a]pyrimidin-3-yl)quinoline] | 84
15 | OCc1ccc2c(-c3cnn4cc(-c5ccc(N6CCNCC6)cc5)cnc34)ccnc2c1 [Compound 16, (4-(6-(4-(piperazin-1-yl)phenyl)pyrazolo[1,5-a]pyrimidin-3-yl)quinolin-7-yl)methanol] | 102
16 | NCc1cccc2c(-c3cnn4cc(-c5ccc(N6CCNCC6)cc5)cnc34)ccnc12 [Compound 25, (4-(6-(4-(piperazin-1-yl)phenyl)pyrazolo[1,5-a]pyrimidin-3-yl)quinolin-8-yl)methanamine] | 482
17 | CC(=O)Nc1ccc2c(-c3cnn4cc(-c5ccc(N6CCNCC6)cc5)cnc34)ccnc2c1 [Compound 26, N-(4-(6-(4-(piperazin-1-yl)phenyl)pyrazolo[1,5-a]pyrimidin-3-yl)quinolin-7-yl)acetamide] | 105
18 | COc1ccc2c(-c3cnn4cc(-c5ccc(N6[C@H](C)CNC[C@@H]6C)cc5)cnc34)cccc2n1 [Compound 67, 5-(6-(4-((2S,6R)-2,6-dimethylpiperazin-1-yl)phenyl)pyrazolo[1,5-a]pyrimidin-3-yl)-2-methoxyquinoline] | 157
19 | NC(=O)c1ccc2c(-c3cnn4cc(-c5ccc(N6CCNCC6)cc5)cnc34)ccnc2c1 [Compound 15, 4-(6-(4-(piperazin-1-yl)phenyl)pyrazolo[1,5-a]pyrimidin-3-yl)quinoline-7-carboxamide] | 127
20 | OCCNCc1ccc2c(-c3cnn4cc(-c5ccc(N6CCNCC6)cc5)cnc34)ccnc2c1 [Compound 14, 2-(((4-(6-(4-(piperazin-1-yl)phenyl)pyrazolo[1,5-a]pyrimidin-3-yl)quinolin-7-yl)methyl)amino)ethanol] | 517
21 | Cc1ccc2c(-c3cnn4cc(-c5ccc(OC6CCN(C)CC6)cn5)cnc34)cccc2n1 [Compound 60, 2-methyl-5-(6-(5-((1-methylpiperidin-4-yl)oxy)pyridin-2-yl)pyrazolo[1,5-a]pyrimidin-3-yl)quinoline] | 155

More lines, now with the values ahead:

Row | IC50 [nM] | SMILES
22 | 7.7 | Cc1cc(-c2cnn3cc(-c4ccc(N5[C@H](C)CNC[C@@H]5C)cc4)cnc23)c2ccccc2n1 [Compound 11, 4-(6-(4-((2R,6S)-2,6-dimethylpiperazin-1-yl)phenyl)pyrazolo[1,5-a]pyrimidin-3-yl)-2-methylquinoline]
23 | 47 | N#Cc1cc(-c2cnc3c(-c4cccc5ncccc45)cnn3c2)ccc1N1CCNCC1 [Compound 38]
24 | 56 | C[C@@H]1CNC[C@H](C)N1c1ccc(-c2cnc3c(-c4cccc5ncccc45)cnn3c2)cn1 [Compound 34]
25 | 32 | Fc1cc(-c2cnc3c(-c4cccc5ncccc45)cnn3c2)ccc1N1CCNCC1 [Compound 40]
26 | 24 | Clc1cc(-c2cnn3cc(-c4ccc(N5CCNCC5)cc4)cnc23)c2ccccc2n1 [Compound 8, 2-chloro-4-(6-(4-(piperazin-1-yl)phenyl)pyrazolo[1,5-a]pyrimidin-3-yl)quinoline]
27 | 66 | C[C@@H]1CNC[C@H](C)N1c1ccc(-c2cnc3c(-c4cccc5[nH]c(=O)ccc45)cnn3c2)cc1 [Compound 68, 5-(6-(4-((2S,6R)-2,6-dimethylpiperazin-1-yl)phenyl)pyrazolo[1,5-a]pyrimidin-3-yl)quinolin-2(1H)-one]
28 | 32 | Cc1ccc2c(-c3cnn4cc(-c5ccc(N6[C@H](C)CNC[C@@H]6C)cc5)cnc34)cccc2n1 [Compound 54, 5-(6-(4-((2R,6S)-2,6-dimethylpiperazin-1-yl)phenyl)pyrazolo[1,5-a]pyrimidin-3-yl)-2-methylquinoline]
29 | 38 | c1cc(-c2cnn3cc(-c4ccc(OCCN5CCCCC5)cc4)cnc23)c2cccnc2c1 [Compound 31, 5-(6-(4-(2-(piperidin-1-yl)ethoxy)phenyl)pyrazolo[1,5-a]pyrimidin-3-yl)quinoline]
30 | 68 | C(#Cc1cnc2c(-c3ccnc4ccccc34)cnn2c1)CN1CCNCC1 [Compound 4, 4-(6-(3-(piperazin-1-yl)prop-1-ynyl)pyrazolo[1,5-a]pyrimidin-3-yl)quinoline]
31 | 30 | Clc1cc(-c2cnc3c(-c4ccnc5ccccc45)cnn3c2)ccc1N1CCNCC1 [Compound 35, 4-(6-(3-chloro-4-(piperazin-1-yl)phenyl)pyrazolo[1,5-a]pyrimidin-3-yl)quinoline]
32 | 14 | c1cc(-c2cnn3cc(-c4ccc(OCCN5CCNCC5)nc4)cnc23)c2cccnc2c1 [Compound 42, 5-(6-(6-(2-(piperazin-1-yl)ethoxy)pyridin-3-yl)pyrazolo[1,5-a]pyrimidin-3-yl)quinoline]
33 | 16 | c1ccc2c(-c3cnn4cc(-c5ccc(N6CCNCC6)cn5)cnc34)ccnc2c1 [Compound 3]
34 | 46 | Clc1cc(-c2cnc3c(-c4cccc5ncccc45)cnn3c2)ccc1N1CCNCC1 [Compound 36, 5-(6-(3-chloro-4-(piperazin-1-yl)phenyl)pyrazolo[1,5-a]pyrimidin-3-yl)quinoline]
35 | 24 | N#Cc1cc(-c2cnc3c(-c4ccnc5ccccc45)cnn3c2)ccc1N1CCNCC1 [Compound 37, 2-(piperazin-1-yl)-5-(3-(quinolin-4-yl)pyrazolo[1,5-a]pyrimidin-6-yl)benzonitrile]
36 | 31 | Oc1ccc2c(-c3cnn4cc(-c5ccc(N6CCNCC6)cc5)cnc34)ccnc2c1 [Compound 28, 4-(6-(4-(piperazin-1-yl)phenyl)pyrazolo[1,5-a]pyrimidin-3-yl)quinolin-7-ol]
37 | 22 | C[C@@H]1CNC[C@H](C)N1c1ccc(-c2cnc3c(-c4ccnc5ccccc45)cnn3c2)cn1 [Compound 33, 4-(6-(6-((2R,6S)-2,6-dimethylpiperazin-1-yl)pyridin-3-yl)pyrazolo[1,5-a]pyrimidin-3-yl)quinoline]
38 | 19 | c1ccc2c(-c3cnn4cc(-c5ncc(N6CCNCC6)s5)cnc34)ccnc2c1 [Compound 7, 5-(piperazin-1-yl)-2-(3-(quinolin-4-yl)pyrazolo[1,5-a]pyrimidin-6-yl)thiazole]
39 | 15 | Fc1cc(-c2cnc3c(-c4ccnc5ccccc45)cnn3c2)ccc1N1CCNCC1 [Compound 39]
40 | 44 | Nc1ccc2c(-c3cnn4cc(-c5ccc(N6CCNCC6)cc5)cnc34)ccnc2c1 [Compound 27, 4-(6-(4-(piperazin-1-yl)phenyl)pyrazolo[1,5-a]pyrimidin-3-yl)quinolin-7-amine]

Same assay, conditions: read-out: potency in ALK2 LANCE assay

Row | IC50 [nM] | SMILES
41 | 800 | O=c1cc(-c2cnn3cc(-c4ccc(N5CCNCC5)cc4)cnc23)c2ccccc2[nH]1 [M422c, 4-(6-(4-(piperazin-1-yl)phenyl)pyrazolo[1,5-a]pyrimidin-3-yl)quinolin-2(1H)-one]
